Results as given in patent US20210108198A1, “APPLICATION OF COMPOUND OR TRADITIONAL CHINESE MEDICINE EXTRACT IN PREPARATION OF NUCLEIC ACID DELIVERY AGENT AND RELATED PRODUCTS THEREOF” (INSTITUTE OF BASIC MEDICAL SCIENCES CHINESE ACADEMY OF …, priority 2017, published 2021).
Entries after “also recorded” stand apart in the source; their conditions may differ.

Key:
A549 cells [1] = assay: Digital PCR (ddPCR) detection of the efficiency of nucleic acid delivery by lipid; assay type: cell-based, human
Method: (§1) 2.2 Experimental method: the total cellular RNA was collected and extracted by TRIzol lysis buffer according to the above methods, and reverse transcribed to cDNA using High capacity cRNA Reverse Transcription Kit, and the cDNA from different groups was subject to digital PCR reaction. Refering to the QX200 Droplet Reader and QuantaSoft Software manual for the protocols, the results were analyzed using QuantaSoft software.
as §1, with “method:” for “method: the”, “total” for “total cellular”, “method,” for “methods,”, “subjected” for “subject”, “Refer” for “Refering”, “protocols;” for “protocols,”
(§2) 2.2 Experimental method: Total RNA was collected and extracted by TRIzol lysis buffer according to the above method, and reverse transcribed to cDNA using TaqMan™ MicroRNA Reverse Transcription KitHigh, and the cDNA from different groups was subjected to digital PCR reaction. Refer to the QX200 Droplet Reader and QuantaSoft Software manual for the protocols; the results were analyzed using QuantaSoft software.
as §2, with “reversed” for “reverse transcribed”, “High capacity cRNA” for “TaqMan™ MicroRNA”, “Kit,” for “KitHigh,”

A549 cells [2] = assay: Confocal fluorescence microscopy of nucleic acid delivered by lipid in cells; assay type: cell-based, human; details: 4 μl lipid, boiling method; 6 hours of co-incubation
Method: Experimental materials: A549 cells (purchased from the Cell Center of the Chinese Academy of Medical Sciences), PGY-sRNA-6-Cy3 (purchased from Ribobio Biotechnology Co., Ltd.), lipid No. 41, Zeiss LSM780 (purchased from Zeiss, Germany), Alexa Fluor® 488 phalloidin (purchased from Invitrogen, USA), DAPI (purchased from Invitrogen, USA), paraformaldehyde (purchased from sigma, USA).
(§3) Experimental methods: PGY-sRNA-6-FAM was dissolved in 100 μl water, mixed with 4 μl lipid, and prepared by the boiling method. Then the mixture was dropped into A549 cells, and after 6 hours of co-incubation, the samples were washed three times with PBS, fixed with 4% paraformaldehyde, washed three times with PBS, stained with Alexa Fluor® 488 phalloidin for 30 min, washed 3 times with PBS, and stained with DAPI for 5 min, washed with PBS, and then sealed.
as §3, with “method:” for “methods:”, “water, and” for “water,”, “by” for “by the”, “Then,” for “Then”, “PBS washed,” for “washed with PBS,”

A549 cells [3] = assay: Flow cytometry detection of the efficiency of nucleic acid delivery by lipid; assay type: cell-based, human; details: boiling method
Method: Experimental materials: A549 cells (purchased from the Cell Center of the Chinese Academy of Medical Sciences), FAM-sRNA (purchased from Ribobio Biotechnology Co., Ltd.), lipid No. 41, Accuri® C6 instrument (purchased from BD, USA).
Experimental methods: PGY-sRNA-6-FAM was dissolved in 100 μl water, mixed with 4 μl lipid, and prepared by boiling method. Then the mixture was dropped into A549 cells, and after 6 hours of co-incubation, the samples were collected for detection as follows: firstly wash three times with PBS, then digest with trypsin for 3 minutes and remove trypsin, wash with PBS again and then blow down the cells. The detection was performed using Accuri® C6 instrument.
Experimental Method: PGY-sRNA-6-FAM was dissolved in 100 μl water, and mixed with 4 μl lipid, and prepared into lipid-sRNA mixture by boiling method. Then, the mixture was dropped into A549 cells, and after 6 hours of co-incubation, the samples were collected and washed three times with PBS, then digested with trypsin into single cells, washed with re-suspended with PBS and then blown down for Accuri® C6 instrument detection.
Experimental Method: FAM-sRNA was dissolved in 100 μl water, and mixed with 4 μl lipid, prepared by boiling method. Then, the lipid-sRNA mixture was dropped into A549 cells, and after 6 hours of co-incubation, the samples were collected and washed three times with PBS, then digested into single cells with trypsin, re-suspended with PBS and then blown down for Accuri® C6 instrument detection.

MRC-5 cell = assay: RT-qPCR detection of nucleic acid delivered by lipid into MRC-5 cells; assay type: cell-based
Method: (§4) 3.1 NCI-N87 cell (gastric cancer cell), MRC-5 cell (lung fibroblast), A549 cell (lung cancer cell) were cultured to logarithmic growth phase, and then plated to a six-well plate at cell density of 1×10^6/2 mL medium/well; MRC-5 cell was cultured in Eagle's MEM medium (MEM, Gibco); A549 cell was cultured in Ham's F-12 medium (HyClone); NCI-N87 cell was cultured in RPMI-1640 medium (HyClone); followed by incubation overnight at 37° C., and the follow-up experiments were performed after the cells were attached to the walls.
(§5) 3.3 After co-incubation with the small RNA for 3 hours, the cells were washed 2-3 times with PBS. The cells were harvested with TRIzol lysis buffer, and the total RNA was extracted. The abundance of small RNA that entered cells was detected by RT-qPCR, and the localization of RNA was detected by fluorescence in situ hybridization; protocols of each detection method were as follows:
(§6) 3.3.2 RT-qPCR Detection of Small RNA (SYBR Green Dye Method)
The stem-loop primer used in the reverse transcription process was synthesized by Beijing Tsingke Biotechnology Co., Ltd. (U6 RT primer: […] ATG (SEQ ID NO: 21); HJT-sRNA-m7 RT stem-loop primer: […] AA (SEQ ID NO: 22)).
Both the forward and reverse primers of the amplification reaction were designed and synthesized by Beijing Tsingke Biotechnology Co., Ltd. (U6 F Primer: […] (SEQ ID NO: 23), U6 R Primer: […] (SEQ ID NO: 24), HJT-sRNA-m7 F Primer: […] (SEQ ID NO: 25), HJT-sRNA-m7 R Primer: […] (SEQ ID NO: 26)).
3) The relative expression level was calculated by 2-ΔCt method.
(§7) 3.1.3 After co-incubation with cells for 12-24 hours, the cells were washed twice with PBS. The cells were harvested with TRIzol lysis buffer (purchased from Sigma-Aldrich), and total RNA was extracted.

A549 cell = assay: RT-qPCR detection of nucleic acid delivered by lipid into A549 cells; assay type: cell-based, human
Method: as §4
4) Lipid nucleic acid mixture: the mixture of lipid and HJT-sRNA-m7 prepared from the step 2 were added into cells and mixed, and the final concentration of RNA was kept at 200 nM.
as §5
3.3.1 RT-qPCR Detection of Small RNA (Taqman Probe Method)
as §6
Mixtures of soybean PC, lipid No. 11 (18:0/18:2) and lipid No. 12 (16:0/18:2), and various small RNA (see below Table 3) were prepared by the reverse evaporation method and then added into A549 cell line (the final concentration of sRNA was 200 nM); the negative control group (control) was directly added with the same concentration of sRNA; the positive control group (RNAimax) was transfected with Lipofectamine RNAimax (transfection reagent 6 μl/well). The abundance of sRNA in the cells was detected by Taqman probe after 3 hours, and the relative expression level of sRNA was calculated by 2-ΔCt method.
as §7, with “extracted. The abundance of HJT-sRNA-m7 that entered the cells was detected by RT-qPCR; the protocols were as follows:” for “extracted.”
4368813) was used to reverse transcribe sRNA to cDNA by stem-loop method (see, e.g. Real-time quantification of microRNAs by stem-loop RT-PCR, Nucleic Acids Res. 2005 Nov. 27; 33(20):e179, incorporated by reference herein).

[4] = In vivo delivery of single-stranded sRNA by single lipid via gavage (blood, stomach, small intestine, liver); parameters: species or system C57 mice; details: 10 μl lipid, 1 nmol each sRNA (PGY-sRNA-23/-26/-32), heating method, 6 hours or 12 hours after administration
Text: Tissues sampled: live/stomach/small intestine.

[5] = reverse evaporation method, 6 hours (No. 39: 6 hours, 12 hours)
[6] = boiling (heating) method, RNA 100 nM, 12 hours (No. 37: 3 hours)
[7] = boiling (heating) method, RNA 100 nM, 2.5 μL single lipid, 12 hours

Row | Compound | delivery of HJT-sRNA-m7 dsRNA (ddPCR) (A549 cells [1]; [5]) | entry of PGY-sRNA-6-Cy3 observed under the confocal microscopy (A549 cells [2]) | delivery of HJT-sRNA-m7 dsRNA (ddPCR) (A549 cells [1]; boiling method, 6 hours) | efficiency in delivering PGY-sRNA-6 single-stranded RNA (flow cytometry) (A549 cells [3]; PGY-sRNA-6-FAM, 4 μl lipid, 6 hours of co-incubation) [%] | efficiency of nucleic acid delivery by flow cytometry, in words (A549 cells [3]; PGY-sRNA-6-FAM, 6 hours) | amount of HJT-sRNA-m7 that entered the cells (RT-qPCR) (MRC-5 cell; Example 2-1, FIG. 33, double-stranded 100 nM, boiling method 100° C. 30 min, 24 hours) | delivery of double-stranded HJT-sRNA-m7 by single lipid (real-time PCR) (MRC-5 cell; boiling (heating) method, RNA 100 nM) | delivery of single-stranded HJT-sRNA-m7 by single lipid (real-time PCR) (MRC-5 cell; [6]) | delivery of double-stranded HJT-sRNA-m7 by single lipid (real-time PCR) (A549 cell; [7]) | delivery of single-stranded HJT-sRNA-m7 by single lipid (real-time PCR) (A549 cell; [6]) | entry of single-stranded small RNA into mouse blood (RT-qPCR) [4] | efficiency of delivering PGY-sRNA-6 single-stranded RNA relative to RNAiMAX (flow cytometry) (A549 cells [3]; 6 hours, FIG. 97) | delivery effect relative to RNAiMAX (real-time PCR) (A549 cell; double-stranded HJT-sRNA-m7 100 nM, boiling method, 12 hours, FIG. 96) | delivery of double-stranded HJT-sRNA-m7 by single lipid (real-time PCR) (A549 cell; reverse evaporation method, RNA 100 nM, 12 hours)
1 | CCCCCC/C=C\CCCCCCCCCC(=O)O[C@H](COC(=O)CCCCCCC/C=C\CCCCCC)COP(=O)(O)OCCN [No. 39, (2-aminoethoxy)[(2R)-3-[(9Z)-hexadec-9-enoyloxy]-2-[(11Z)-octadec-11-enoyloxy]propoxy] phosphinic acid] | could effectively deliver HJT-sRNA-m7 dsRNA into A549 cells |  |  |  |  |  |  |  |  |  |  |  |  | 
2 | CCCCCC/C=C\CCCCCCCC(=O)O[C@H](COC(=O)CCCCCCCCCCCCCCC)COP(=O)(O)OCCN [No. 38, (2-aminoethoxy)[(2R)-2-[(9Z)-hexadec-9-enoyloxy]-3-(hexadecanoyloxy)propoxy]phosphinic acid] | could effectively deliver HJT-sRNA-m7 dsRNA into A549 cells | could effectively deliver double-stranded nucleic acid into A549 cells | could effectively deliver HJT-sRNA-m7 dsRNA into A549 cells | 72.5 | close to that of the positive control RNAiMAX | effectively delivered nucleic acids into MRC-5 cells, showing an effect close to the transfection reagent RNAiMAX | delivered double-stranded RNA into A549 and MRC-5 cells; also recorded: about twice that of RNAiMAX | the efficiency of delivery was much higher than that of RNAiMAX | delivered double-stranded RNA into A549 and MRC-5 cells | the efficiency of delivery was much higher than that of RNAiMAX | could effectively deliver sRNA single-stranded nucleic acid into mouse blood via oral administration; also recorded: the delivery effect was better than POPC and Lipofectamine RNAiMAX |  |  | 
3 | CCCCCCCC/C=C\CCCCCCCCCCCCCC(=O)O[C@H](COC(=O)CCCCCCCCCCCCCC)COP(=O)(O)OCCN [No. 64, 1-pentadecanoyl-2-nervonoyl-sn-glycero-3-phosphoethanolamine] |  | could effectively deliver single-stranded RNA into A549 cells |  |  |  |  |  |  | delivered HJT-sRNA-m7 double-stranded RNA into A549 cells |  | could effectively deliver sRNA single-stranded nucleic acid into mouse blood via oral administration; also recorded: the delivery effect was better than POPC and Lipofectamine RNAiMAX | ½ | about 3 times that of RNAiMAX | delivered HJT-sRNA-m7 double-stranded RNA into A549 cells
